Laboratory results published in US6946076B2, “Removal of phosphate from water” (Dudley Mills Pty Ltd., priority 2001, dated 2005).

Settings: made by mixing lanthanum chloride, citric acid and sodium hydroxide solutions

Substance: lanthanum hydroxy-citrate
- content of clear stable solutions: up to 200 g/l
